Experimental data taken from ChEMBL document CHEMBL5518224, “Rational Design of PARP1/c-Met Dual Inhibitors for Overcoming PARP1 Inhibitor Resistance Induced by c-Met Overexpression” (J Med Chem, 2024).

What was measured:
[1] = MRT (0 to infinity) in male SPF-ICR mouse at 10 mg/kg, ip measured upto 24 hrs by LC-MS/MS analysis; type: ADME, organism-based; settings: in vivo
[2] = Toxicity in female Balb/c nude mouse xenografted with human MDA-MB-231 cells assessed as adverse effects at 12.5 to 50 mg/kg, ip qd administered for 28 days; type: organism-based; settings: in vivo, 672 h, dose 12.5-50 mg/kg, time 28 day
[3] = Toxicity in female Balb/c nude mouse xenografted with human Olaparib-resistant HCT116 cells assessed as body weight loss at 25 to 100 mg/kg, ip qd administered for 21 days; type: organism-based, HCT-116; settings: in vivo, 504 h, dose 25-100 mg/kg, time 21 day
[4] = system: Olaparib-resistant HCT116; assay: Antitumor activity against human Olaparib-resistant HCT116 cells xenografted in female Balb/c nude mouse assessed as tumor growth inhibition at 25 mg/kg/day, ip qd administered for 21 days relative to control; type: functional; settings: Olaparib-resistant HCT116, 504 h, time 21 day, read-out: TGI
[5] = system: MDA-MB-231; assay: Antitumor activity against human MDA-MB-231 cells xenografted in female Balb/c nude mouse assessed as tumor growth inhibition at 50 mg/kg/day, ip qd administered for 28 days relative to control; type: functional; settings: Mus musculus, MDA-MB-231, 672 h, time 28 day, read-out: TGI
[6] = system: MDA-MB-231; assay: Antitumor activity against human MDA-MB-231 cells xenografted in female Balb/c nude mouse assessed as tumor growth inhibition at 12.5 mg/kg/day, ip qd administered for 28 days relative to control; type: functional; settings: MDA-MB-231, 672 h, time 28 day, read-out: TGI
[7] = Cmax in male SPF-ICR mouse at 10 mg/kg, ip measured upto 24 hrs by LC-MS/MS analysis; type: ADME, organism-based; settings: in vivo
[8] = Clearance in male SPF-ICR mouse at 10 mg/kg, ip measured upto 24 hrs by LC-MS/MS analysis; type: ADME, organism-based; settings: in vivo
[9] = Tmax in male SPF-ICR mouse at 10 mg/kg, ip measured upto 24 hrs by LC-MS/MS analysis; type: ADME, organism-based; settings: in vivo
[10] = AUC (0 to infinity) in male SPF-ICR mouse at 10 mg/kg, ip measured upto 24 hrs by LC-MS/MS analysis; type: ADME, organism-based; settings: in vivo
[11] = system: MDA-MB-231; assay: Antitumor activity against human MDA-MB-231 cells xenografted in female Balb/c nude mouse assessed as tumor growth inhibition at 25 mg/kg/day, ip qd administered for 28 days relative to control; type: functional; settings: MDA-MB-231, 672 h, time 28 day, read-out: TGI
[12] = system: Olaparib-resistant HCT116; assay: Antitumor activity against human Olaparib-resistant HCT116 cells xenografted in female Balb/c nude mouse assessed as tumor growth inhibition at 5 mg/kg/day, iv qd administered for 21 days relative to control; type: functional; settings: Olaparib-resistant HCT116, 504 h, time 21 day, read-out: TGI
[13] = Half life in male SPF-ICR mouse at 10 mg/kg, ip measured upto 24 hrs by LC-MS/MS analysis; type: ADME, organism-based; settings: in vivo
[14] = Toxicity in female Balb/c nude mouse xenografted with human Olaparib-resistant HCT116 cells assessed as adverse effects at 25 to 100 mg/kg, ip qd administered for 21 days; type: organism-based, HCT-116; settings: in vivo, 504 h, dose 25-100 mg/kg, time 21 day
[15] = system: Olaparib-resistant HCT116; assay: Antitumor activity against human Olaparib-resistant HCT116 cells xenografted in female Balb/c nude mouse assessed as tumor growth inhibition at 100 mg/kg/day, ip qd administered for 21 days relative to control; type: functional; settings: Olaparib-resistant HCT116, 504 h, time 21 day, read-out: TGI
[16] = system: Olaparib-resistant HCT116; assay: Antitumor activity against human Olaparib-resistant HCT116 cells xenografted in female Balb/c nude mouse assessed as tumor growth inhibition at 50 mg/kg/day, ip qd administered for 21 days relative to control; type: functional; settings: Mus musculus, Olaparib-resistant HCT116, 504 h, time 21 day, read-out: TGI
[17] = Toxicity in female Balb/c nude mouse xenografted with human MDA-MB-231 cells assessed as body weight loss at 12.5 to 50 mg/kg, ip qd administered for 28 days; type: organism-based; settings: in vivo, 672 h, dose 12.5-50 mg/kg, time 28 day
[18] = MRT (0 to t) in male SPF-ICR mouse at 10 mg/kg, ip measured upto 24 hrs by LC-MS/MS analysis; type: ADME, organism-based; settings: in vivo
[19] = AUC (0 to t) in male SPF-ICR mouse at 10 mg/kg, ip measured upto 24 hrs by LC-MS/MS analysis; type: ADME, organism-based; settings: in vivo
[20] = biological target: Hepatocyte growth factor receptor (Homo sapiens, UniProt P08581); assay: Inhibition of c-Met (unknown origin)
Hepatocyte growth factor receptor, sequence (P08581 whole entry): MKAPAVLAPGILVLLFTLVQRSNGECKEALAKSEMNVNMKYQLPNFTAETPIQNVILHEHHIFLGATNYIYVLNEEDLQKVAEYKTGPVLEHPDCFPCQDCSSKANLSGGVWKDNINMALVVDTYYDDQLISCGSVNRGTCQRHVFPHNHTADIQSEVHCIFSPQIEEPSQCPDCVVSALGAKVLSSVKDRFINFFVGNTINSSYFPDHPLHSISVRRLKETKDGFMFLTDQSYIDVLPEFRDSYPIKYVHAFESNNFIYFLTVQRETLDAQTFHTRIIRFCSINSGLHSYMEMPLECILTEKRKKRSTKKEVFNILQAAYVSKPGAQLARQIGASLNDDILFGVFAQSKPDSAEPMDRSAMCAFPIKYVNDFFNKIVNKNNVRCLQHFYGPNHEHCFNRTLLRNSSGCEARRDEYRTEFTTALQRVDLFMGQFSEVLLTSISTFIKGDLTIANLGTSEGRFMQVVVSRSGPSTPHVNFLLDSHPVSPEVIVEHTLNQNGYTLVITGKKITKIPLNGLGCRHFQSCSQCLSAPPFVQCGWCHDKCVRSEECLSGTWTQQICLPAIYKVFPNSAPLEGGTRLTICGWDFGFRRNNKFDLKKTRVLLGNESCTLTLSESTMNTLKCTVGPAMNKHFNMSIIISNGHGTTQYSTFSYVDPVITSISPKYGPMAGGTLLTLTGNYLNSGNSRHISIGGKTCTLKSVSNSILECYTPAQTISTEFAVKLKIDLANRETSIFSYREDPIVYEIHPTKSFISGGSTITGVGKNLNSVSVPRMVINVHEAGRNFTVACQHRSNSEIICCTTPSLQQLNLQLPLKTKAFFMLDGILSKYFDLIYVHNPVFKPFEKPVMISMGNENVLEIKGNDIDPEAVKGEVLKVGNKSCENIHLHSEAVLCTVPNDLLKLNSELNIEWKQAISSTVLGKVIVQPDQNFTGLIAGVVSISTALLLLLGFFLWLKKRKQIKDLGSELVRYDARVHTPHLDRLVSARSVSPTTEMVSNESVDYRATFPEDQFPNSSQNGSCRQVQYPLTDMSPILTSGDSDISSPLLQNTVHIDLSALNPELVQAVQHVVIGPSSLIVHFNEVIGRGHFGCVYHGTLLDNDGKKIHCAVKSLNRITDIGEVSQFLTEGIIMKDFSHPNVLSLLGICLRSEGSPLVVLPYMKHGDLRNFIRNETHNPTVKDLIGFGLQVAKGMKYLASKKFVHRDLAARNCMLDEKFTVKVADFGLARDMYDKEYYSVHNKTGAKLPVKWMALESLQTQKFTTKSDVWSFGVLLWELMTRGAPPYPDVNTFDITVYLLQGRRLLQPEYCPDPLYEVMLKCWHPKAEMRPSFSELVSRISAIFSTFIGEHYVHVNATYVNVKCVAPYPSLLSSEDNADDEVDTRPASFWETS

For `Cl.O=C(c1cc(Cc2n[nH]c(=O)c3ccccc23)ccc1F)N1CCN(c2ccc3c(OCCn4nc(-c5cccnc5)ccc4=O)ccnc3c2)CC1`, which MRT inf [1] is on record?
Its MRT inf is 1.77 h.

What about the Activity [2] of the same molecule?
Its Activity is “Non-Toxic”.

And the Activity [3]?
Its Activity is “Non-Toxic”.

What about the inhibition in vivo at 25 mg/kg/day [4] of the same molecule?
Its inhibition in vivo at 25 mg/kg/day is 62%.

What about the inhibition in vivo at 50 mg/kg/day [5] of the same molecule?
The inhibition in vivo at 50 mg/kg/day was 77%.

What about the inhibition in vivo at 12.5 mg/kg/day [6] of the same molecule?
Its inhibition in vivo at 12.5 mg/kg/day is 49%.

What about the Cmax [7] of the same molecule?
The Cmax was 152 ng/mL.

And the CL/F [8]?
The CL/F was 2020 mL/min/kg.

And the Tmax [9]?
The Tmax was 0.25 h.

And the AUC(0-inf) [10]?
The AUC(0-inf) was 96.7 ng·h/mL.

And the inhibition in vivo at 25 mg/kg/day [11]?
The inhibition in vivo at 25 mg/kg/day was 60%.

And the inhibition in vivo at 5 mg/kg/day [12]?
The inhibition in vivo at 5 mg/kg/day was 59%.

And the half-life [13]?
Its half-life is 1.42 h.

And the Activity [14]?
Its Activity is “Non-Toxic”.

What about the inhibition in vivo at 100 mg/kg/day [15] of the same molecule?
The inhibition in vivo at 100 mg/kg/day was 70%.

And the inhibition in vivo at 50 mg/kg/day [16]?
The inhibition in vivo at 50 mg/kg/day was 64%.

What about the Activity [17] of the same molecule?
Its Activity is “Non-Toxic”.

And the MRT last at 24 h [18]?
Its MRT last at 24 h is 1.67 h.

What about the AUC(0-t) at 24 h [19] of the same molecule?
Its AUC(0-t) at 24 h is 95.4 ng·h/mL.

For `O=C1NC(=O)[C@@H](c2cn3c4c(cccc24)CCC3)[C@@H]1c1c[nH]c2ccccc12` [TIVANTINIB], which Ki [20] is on record?
Its Ki is 335 nM.
